Assays:
[1] = Solubility measurement of saturated solutions by HPLC at room temperature (0 h and 24 h); type: physicochemical; conditions: for solubility at 0 h / solubility at 24 h: thermodynamic from solid
Procedure: The vial contents are prepared starting with 2.5 mg of the compound of formula (I). The primary excipient is added followed by any further excipient and then the buffered water to a total volume of 500 μL. All components are mixed in a vortex mixer for ca. 5 minutes. If everything is dissolved an additional 2.5 mg of the compound of formula (I) is added and vortexed again for ca. 5 minutes. This is repeated until a saturated solution (suspension) is obtained.
The solubility in vial 1 is measured immediately as described below.
To measure solubility 400 μl of the suspension are taken and placed in a centrifugation device above a 0.2 μm filter. Centrifugation is performed at 14,000 rpm for 10 minutes and if necessary repeated for additional 10 minutes. The filter is removed from the vial and 100 μL is taken and diluted with 400 μL high-performance liquid chromatography (HPLC) diluent solution (see below) or diluted with 900 μL HPLC diluent solution in the event 5 mg or more of the compound of formula (I) was used. The pH of the solution is measured. A further 100 μL of the vial solution is taken and diluted with 400 μL of HPLC diluent solution or diluted with 900 μL HPLC diluent solution in the event 5 mg or more of the compound of formula (I) was used. The assay of the solution versus control stock solution is measured by HPLC and the solubility is calculated as described below. The HPLC diluent solution is 0.1% trifluoroacetic acid (TFA) in acetonitrile (ACN) and water (1:1 v/v).
All solubility tests are performed at room temperature.
The HPLC method for assessing solubility is performed as follows:
The solubility of the compound of formula (I) is calculated according to the following formula:
[formula] • Solubility=solubility of compound of formula (I) (mg/mL) • A=peak area of the compound of the sample tested • a=value of constant “a” in Linear regression equation y=ax+b • b=value of constant “b” in Linear regression equation y=ax+b • n=dilution time • Formulations for stability assessment are prepared as follows: […]

[2] = Solubility in water as a function of pH; type: physicochemical; conditions: aqueous buffer, pH≥4.5 (practically insoluble)
Procedure: The compound of formula (I) as a free base compound has a quite strong lipophilic behavior (Log P 4.13). […] Taking into account these characteristics, and based on pH requirements for intravenous (IV) solutions which is generally set ≥4.0, solubility studies were carried out to identify solubilizers able to substantially increase the aqueous solubility of the compound of formula (I).

[3] = buffered water with excipients, pH 7, aqueous with cosolvent or surfactant or cyclodextrin, CBS 30 mM pH 7.0, NaCl 3 mg/mL, SBE-beta-CD 40 mg/mL, pH exp 7.0

COc1cc(N2CCNCC2)ccc1Nc1ncc2c(n1)-n1ccc(C(=O)Nc3c(C)cccc3C)c1CC2 [compound of formula (I)]
solubility at 0 h ([1]; buffered water with excipients, pH 4, aqueous with cosolvent or surfactant or cyclodextrin, CBS 30 mM pH 4.0, NaCl 6 mg/mL, SBE-beta-CD 40 mg/mL + Propylene glycol 10 mg/mL, pH exp 4.1): 2420 µg/mL
solubility at 24 h ([1]; buffered water with excipients, pH 4, aqueous with cosolvent or surfactant or cyclodextrin, CBS 30 mM pH 4.0, NaCl 6 mg/mL, SBE-beta-CD 40 mg/mL + Propylene glycol 10 mg/mL, pH exp 4.2): 3650 µg/mL
solubility at 0 h ([1]; buffered water with excipients, pH 4, aqueous with cosolvent or surfactant or cyclodextrin, CBS 30 mM pH 4.0, NaCl 6 mg/mL, SBE-beta-CD 40 mg/mL + Propylene glycol 20 mg/mL, pH exp 4.1): 2310 µg/mL
solubility at 24 h ([1]; buffered water with excipients, pH 4, aqueous with cosolvent or surfactant or cyclodextrin, CBS 30 mM pH 4.0, NaCl 6 mg/mL, SBE-beta-CD 40 mg/mL + Propylene glycol 20 mg/mL, pH exp 4.2): 3440 µg/mL
solubility at 0 h ([1]; buffered water with excipients, pH 4, aqueous with cosolvent or surfactant or cyclodextrin, CBS 30 mM pH 4.0, NaCl 6 mg/mL, SBE-beta-CD 40 mg/mL + Propylene glycol 30 mg/mL, pH exp 4.1): 2150 µg/mL
solubility at 24 h ([1]; buffered water with excipients, pH 4, aqueous with cosolvent or surfactant or cyclodextrin, CBS 30 mM pH 4.0, NaCl 6 mg/mL, SBE-beta-CD 40 mg/mL + Propylene glycol 30 mg/mL, pH exp 4.2): 3350 µg/mL
solubility at 0 h ([1]; buffered water with excipients, pH 4, aqueous with cosolvent or surfactant or cyclodextrin, CBS 30 mM pH 4.0, SBE-beta-CD 54 mg/mL + Ethanol 16 mg/mL, pH exp 4.1): 2490 µg/mL
solubility at 24 h ([1]; buffered water with excipients, pH 4, aqueous with cosolvent or surfactant or cyclodextrin, CBS 30 mM pH 4.0, SBE-beta-CD 54 mg/mL + Ethanol 16 mg/mL, pH exp 4.3): 3850 µg/mL
solubility at 0 h ([1]; buffered water with excipients, pH 4, aqueous with cosolvent or surfactant or cyclodextrin, CBS 30 mM pH 4.0, SBE-beta-CD 54 mg/mL + PEG 300 56 mg/mL, pH exp 4.2): 2890 µg/mL
solubility at 24 h ([1]; buffered water with excipients, pH 4, aqueous with cosolvent or surfactant or cyclodextrin, CBS 30 mM pH 4.0, SBE-beta-CD 54 mg/mL + PEG 300 56 mg/mL, pH exp 4.3): 4030 µg/mL
solubility at 0 h ([1]; buffered water with excipients, pH 4, aqueous with cosolvent or surfactant or cyclodextrin, CBS 30 mM pH 4.0, SBE-beta-CD 56 mg/mL + PEG 400 22 mg/mL, pH exp 4.2): 2810 µg/mL
solubility at 24 h ([1]; buffered water with excipients, pH 4, aqueous with cosolvent or surfactant or cyclodextrin, CBS 30 mM pH 4.0, SBE-beta-CD 56 mg/mL + PEG 400 22 mg/mL, pH exp 4.3): 4060 µg/mL
solubility at 0 h ([1]; buffered water with excipients, pH 4, aqueous with cosolvent or surfactant or cyclodextrin, GBS (gluconate) 30 mM pH 4.0, NaCl 3 mg/mL, SBE-beta-CD 40 mg/mL, pH exp 4.1): 2590 µg/mL
solubility at 24 h ([1]; buffered water with excipients, pH 4, aqueous with cosolvent or surfactant or cyclodextrin, GBS (gluconate) 30 mM pH 4.0, NaCl 3 mg/mL, SBE-beta-CD 40 mg/mL, pH exp 4.5): 3940 µg/mL
solubility at 0 h ([1]; buffered water with excipients, pH 4, aqueous with cosolvent or surfactant or cyclodextrin, LBS (lactate) 30 mM pH 4.0, NaCl 3 mg/mL, SBE-beta-CD 40 mg/mL, pH exp 4.1): 2690 µg/mL
solubility at 24 h ([1]; buffered water with excipients, pH 4, aqueous with cosolvent or surfactant or cyclodextrin, LBS (lactate) 30 mM pH 4.0, NaCl 3 mg/mL, SBE-beta-CD 40 mg/mL, pH exp 4.3): 3980 µg/mL
solubility at 24 h ([1]; buffered water with excipients, pH 5.5, aqueous with cosolvent or surfactant or cyclodextrin, CBS 30 mM pH 5.5, NaCl 3 mg/mL, SBE-beta-CD 40 mg/mL, pH exp 5.7): 3100 µg/mL
solubility at 0 h [1, 3]: 2230 µg/mL
solubility at 24 h [1, 3]: 2230 µg/mL
solubility at 0 h ([1]; buffered water without excipient (saturated solution), pH 4, aqueous buffer, CBS 30 mM pH 4.0, no excipient, pH exp 4.0): 160 µg/mL
solubility at 24 h ([1]; buffered water without excipient (saturated solution), pH 4, aqueous buffer, CBS 30 mM pH 4.0, no excipient, pH exp 4.2): 120 µg/mL
effect of buffer on solubility with SBE-beta-CD ([1]; citrate acid, acetic acid, gluconic acid, lactic acid and aspartic acid buffer): approximately the same
solubility (in words) ([1]; other solubilizers at concentrations suitable for intravenous use, including hydroxypropyl beta-cyclodextrin): Low solubility
effect of additional excipient on solubility with SBE-beta-CD ([1]; saline): very small impact on solubility
solubility (in words) ([1]; with SBE-beta-CD at concentrations of solubilizer suitable for intravenous use): High solubility
solubility (in words) ([1]; with SBE-beta-CD, at higher pH): lower solubility
solubility (in words) ([1]; with SBE-beta-CD, between pH 4 to pH 5.5): High solubility
solubility [2]: ≤ 20 µg/mL

Reference: patent US20250049926A1, “PHARMACEUTICAL COMPOSITIONS COMPRISING MODIFIED BETACYCLODEXTRINS” (priority 2021, published 2025)
